Measurements taken from patent EP0869784B1, “INHIBITION OF FATTY ACID SYNTHASE AS A MEANS TO REDUCE ADIPOCYTE MASS” (THE JOHNS HOPKINS UNIVERSITY, priority 1995, dated 1997).

Tests used:
OVCAR-3 cells = experiment: Survival of nude mice inoculated with OVCAR-3 cells (Examples 8 and 9); assay type: in vivo
Protocol: (§1) 20 nude mice (Harland) mice were inoculated on Day 0 with 0.1 ml packed OVCAR-3 cells. 10 mice received transisomer of C-75 (20 mg/kg) in 100 ul RPMI on days 1, 3, and 5. 10 mice received 100 ul of RPMI i.p. alone on days 1, 3, and 5. Animals were weighed on days indicated on Figure 6. Animals were sacrificed when 30% increase in body weight occurred from tumor growth.
(§2) This indicates a dose response to the anti-tumor effect of C-75.

[1] = test system: hepatic fatty acid synthesis; experiment: In vivo metabolic labeling with [U-3H]-acetate, liver fatty acid synthesis; parameters: species or system mice
Protocol: (§3) Fatty acid synthesis was measured using metabolic labeling in vivo with [U-^3H]-acetate as described in Pizer, et al., 1996, Cancer Res., 56:1189-1193.
Thus, the reversible cerulenin-induced weight loss may be the result of fatty acid synthesis inhibition as well as decreased appetite in the mice.
(§4) HL60 cells were labeled with [U^14C]-acetate in the presence of 10 µg/ml C-75; cells were incubated in 5% CO2 at 37°C. Results are plotted in Figure 3; each time point was performed in triplicate, error bars are the standard deviation.

[2] = C-75-induced weight loss in nude mice inoculated with OVCAR-3 cells (Examples 8 and 9); assay type: in vivo
Protocol: as §1, §2

[3] = test system: HL60 human promyelocytic leukemia cells; experiment: [U14C]-acetate incorporation by HL60 cells; assay type: cell-based; conditions: 10 µg/ml, time dependent, Figure 3
Protocol: as §4

FAS = FAS (Homo sapiens, UniProt P49327); experiment: FAS activity in hypotonic lysate of OVCAR-3 ascites cells (malonyl-CoA dependent oxidation of NADPH at 340 nm); assay type: biochemical
Excerpt: Compounds which inhibit FAS can be identified by testing the ability of a compound to inhibit fatty acid synthase activity using purified enzyme. Fatty acid synthase activity can be measured spectrophotometrically based on the oxidation of NADPH, or radioactively by measuring the incorporation of radiolabeled acetyl- or malonyl-CoA. (Dils, et al, Methods Enzymol, 35:74-83). FAS inhibitors are exemplified in U.S. patent application 08/188,425 and International patent publication WO 94/02108, both of which are incorporated herein by reference.

[4] = C-75-induced weight loss in OVCAR-3 xenograft mice, pilot study (Example 6); assay type: in vivo; conditions: 60 mg/kg on days 1, 3, and 5
Protocol: C-75 was tested in vivo in a pilot study against the OVCAR-3 xenograft model of Example 4. Ten mice were inoculated intraperitoneally with 10^7 OVCAR-3 cells. The mice were treated on days 1, 3, and 5 with either DMSO or 60 mg/kg C-75. Results are plotted in Figure 4. C-75 treated mice experienced a 20% reduction in weight loss by day eight. Animals regained their original weight by day 15, increased their weight to nearly 110% of original body weight by day 24, and achieved original body weight by day 34.

[5] = test system: HL60 human promyelocytic leukemia cells; experiment: HL60 viable cell count with or without palmitate (fatty acid rescue); assay type: cell-based; conditions: 2.5 ug/ml; palmitate 80 micromolar; viable cells by trypan blue exclusion, Figure 5
Protocol: Suitable FAS inhibitors may be identified by a simple test exemplified in Example 7, and in U.S. patent application 08/188,425. Generally, this test uses a tumor cell line in which an FAS inhibitor, typically cerulenin, is cytotoxic. Such cell lines include SKBR-3, ZR-75-1, and preferably HL60. Suitable FAS inhibitors will inhibit growth of such cell lines, but the cells are rescued by exogenous supply of the product of the FAS enzyme (fatty acid). When cell growth is measured in the presence and absence of exogenous fatty acid (e.g., palmitate or oleate), inhibition by specific FAS inhibitors is relieved by the fatty acid.
200,000 HL60 cells were plated in 24-well plates in 1 ml fatty acid free medium with or without palmitate (80 micromolar, complexed to fatty acid free albumin 0.2:1). Cells were treated with 2.5 ug/ml of C-75. Cells were incubated in 5% CO2 at 37°C and viable cells were counted with trypan blue exclusion at 24, […], 72, and 96 hours. Results are plotted in Figure 5; each time point was performed in triplicate, error bars are the standard deviation. […] Note that palmitate alone causes some suppression of HL60 proliferation.

[6] = Cerulenin-induced weight loss in nude mice with OVCAR-3 xenografts (Example 3); assay type: in vivo, Athymic mice; conditions: 80 mg/kg i.p. for 1 week
Protocol: Cerulenin was administered as described in Example 2 above to mice which received 10^7 OVCAR-3 human ovarian cancer cells. Athymic mice received 0.1 ml of packed NIH-OVCAR-3 cells (approximately […]) intraperitoneally on treatment day 0. Beginning on day 1, treated mice received 80 mg/kg cerulenin i.p. in 25% DMSO/saline for 1 week, while untreated mice received vehicle alone. […] Weight loss constitutes the major toxicity observed during fatty acid synthesis inhibition therapy with cerlenin; the mice regained inception body mass within 10 days following treatment.

[7] = test system: OVCAR-3 ascites tumor fatty acid synthesis; experiment: In vivo metabolic labeling with [U-3H]-acetate, tumor fatty acid synthesis; parameters: species or system mice
Protocol: as §3

[8] = Cerulenin-induced weight loss in athymic nude mice (Example 2), with necropsy from a parallel experiment; assay type: in vivo
Protocol: Athymic mice received 60 mg/kg cerulenin i.p. in 25% DMSO/saline or vehicle alone each day for 1 week. The animal weights were recorded every two days up to day 15. Average animal weight for both groups of mice is plotted against treatment day in Figure 1. Error bars represent standard error of the mean. […] In addition there was a 28% reduction of feces mass in the cerulenin-treated group consistent with deceased food intake.

[9] = Half life of the drug in ascites; parameters: species or system mice; conditions: mouse, in vivo, ip
[10] = 60 mg/kg i.p. each day for 1 week

FAS, sequence (P49327 whole entry): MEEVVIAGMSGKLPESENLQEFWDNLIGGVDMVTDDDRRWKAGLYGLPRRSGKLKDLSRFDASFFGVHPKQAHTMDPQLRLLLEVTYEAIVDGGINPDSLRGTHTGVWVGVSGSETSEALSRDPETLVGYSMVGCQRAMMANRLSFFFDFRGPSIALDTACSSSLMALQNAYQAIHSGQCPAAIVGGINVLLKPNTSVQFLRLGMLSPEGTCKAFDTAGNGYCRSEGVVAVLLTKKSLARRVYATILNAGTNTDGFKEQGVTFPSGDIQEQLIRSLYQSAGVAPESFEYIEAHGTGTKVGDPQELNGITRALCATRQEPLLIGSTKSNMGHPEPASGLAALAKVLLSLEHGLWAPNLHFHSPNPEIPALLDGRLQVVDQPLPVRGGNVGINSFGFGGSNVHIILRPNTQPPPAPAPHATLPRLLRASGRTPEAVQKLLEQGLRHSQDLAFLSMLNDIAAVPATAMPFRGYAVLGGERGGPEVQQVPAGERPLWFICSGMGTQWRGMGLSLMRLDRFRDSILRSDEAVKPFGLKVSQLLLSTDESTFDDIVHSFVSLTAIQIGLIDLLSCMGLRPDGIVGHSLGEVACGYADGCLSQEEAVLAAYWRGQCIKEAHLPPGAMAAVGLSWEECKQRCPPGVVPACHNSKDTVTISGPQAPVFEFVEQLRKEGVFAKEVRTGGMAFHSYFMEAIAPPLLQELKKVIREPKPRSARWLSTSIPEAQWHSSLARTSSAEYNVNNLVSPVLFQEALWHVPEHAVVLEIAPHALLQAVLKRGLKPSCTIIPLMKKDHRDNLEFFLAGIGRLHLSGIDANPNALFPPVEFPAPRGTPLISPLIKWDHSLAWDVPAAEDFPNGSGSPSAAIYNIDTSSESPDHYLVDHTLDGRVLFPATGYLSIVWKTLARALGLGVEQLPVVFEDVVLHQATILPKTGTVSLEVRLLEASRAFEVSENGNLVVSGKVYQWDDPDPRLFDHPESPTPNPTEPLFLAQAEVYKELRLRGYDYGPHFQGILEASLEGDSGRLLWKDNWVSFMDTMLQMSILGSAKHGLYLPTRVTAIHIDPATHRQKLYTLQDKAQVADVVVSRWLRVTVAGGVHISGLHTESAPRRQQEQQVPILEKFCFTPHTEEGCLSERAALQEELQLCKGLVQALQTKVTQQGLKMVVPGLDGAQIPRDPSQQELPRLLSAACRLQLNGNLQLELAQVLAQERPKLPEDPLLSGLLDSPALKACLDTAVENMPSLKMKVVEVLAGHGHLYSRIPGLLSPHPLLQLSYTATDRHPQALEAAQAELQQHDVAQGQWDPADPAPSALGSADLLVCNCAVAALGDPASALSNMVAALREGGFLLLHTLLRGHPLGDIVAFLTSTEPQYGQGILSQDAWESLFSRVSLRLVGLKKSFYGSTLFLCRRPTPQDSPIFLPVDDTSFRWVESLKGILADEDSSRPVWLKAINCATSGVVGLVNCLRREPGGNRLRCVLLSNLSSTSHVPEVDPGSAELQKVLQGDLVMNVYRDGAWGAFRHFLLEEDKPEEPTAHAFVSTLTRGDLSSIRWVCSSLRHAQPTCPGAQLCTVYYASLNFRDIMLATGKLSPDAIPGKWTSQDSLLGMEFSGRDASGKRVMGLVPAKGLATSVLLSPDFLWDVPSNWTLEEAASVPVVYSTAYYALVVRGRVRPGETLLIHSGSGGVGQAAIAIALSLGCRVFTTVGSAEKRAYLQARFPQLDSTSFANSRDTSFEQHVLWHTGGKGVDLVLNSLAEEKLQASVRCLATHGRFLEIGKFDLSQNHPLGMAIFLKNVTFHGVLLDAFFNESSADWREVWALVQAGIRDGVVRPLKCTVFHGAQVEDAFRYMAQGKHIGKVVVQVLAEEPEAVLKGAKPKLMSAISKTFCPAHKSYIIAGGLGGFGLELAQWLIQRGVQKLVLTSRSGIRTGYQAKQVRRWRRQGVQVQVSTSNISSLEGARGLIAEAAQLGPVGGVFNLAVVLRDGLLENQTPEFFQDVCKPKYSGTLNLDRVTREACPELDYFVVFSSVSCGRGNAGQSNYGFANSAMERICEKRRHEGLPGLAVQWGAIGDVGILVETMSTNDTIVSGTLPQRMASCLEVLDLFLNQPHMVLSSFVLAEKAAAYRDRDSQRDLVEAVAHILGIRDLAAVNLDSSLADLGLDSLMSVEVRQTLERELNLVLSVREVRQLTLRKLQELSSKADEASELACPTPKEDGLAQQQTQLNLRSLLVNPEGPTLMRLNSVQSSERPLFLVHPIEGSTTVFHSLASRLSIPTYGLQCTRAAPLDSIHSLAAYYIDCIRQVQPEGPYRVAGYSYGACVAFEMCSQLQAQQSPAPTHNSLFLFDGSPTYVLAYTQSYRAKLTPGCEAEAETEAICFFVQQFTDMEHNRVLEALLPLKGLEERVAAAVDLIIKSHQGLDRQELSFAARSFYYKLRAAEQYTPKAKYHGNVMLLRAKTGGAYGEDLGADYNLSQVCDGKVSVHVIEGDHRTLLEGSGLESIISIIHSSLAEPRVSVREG

Question: For C=C1C(=O)O[C@@H](CCCCCCCC)[C@@H]1C(=O)O (relative stereo) [Example C-75, trans-Tetrahydro-3-methylene-2-oxo-5-n-octyl-4-furancarboxylic acid], which “survival of the xenograft” value (OVCAR-3 cells; 20 mg/kg on days 1, 3, and 5, p=0.001 Wilcoxon and Mantel) is on record?
Answer: increased survival

Question: And the survival (OVCAR-3 cells; only one dose, wilcoxon p=0.56, Mantel p=0.52)?
Answer: trend showing increased survival, but it was not statistically significant

Question: What about the “reduction of [U-3H] acetate incorporation into fatty acids in mouse liver” value ([1]; pilot in vivo metabolic labeling studies) of the same compound?
Answer: 30%

Question: And the “weight loss in mice” value ([2]; 20 mg/kg on days 1, 3, and 5, Figure 6)?
Answer: causes weight loss

Question: What about the “average maximum weight loss” value ([2]; only one dose, on day 3) of the same compound?
Answer: about 3 grams

Question: What about the “reduction in fatty acid synthesis (label incorporation into phospholipids)” value [3] of the same compound?
Answer: nearly a three-fold reduction

Question: What about the “reduction of FAS activity compared to control lysate” value (FAS; 50 µg/ml, 37 °C, 180 min) of the same compound?
Answer: 3 fold

Question: And the FAS activity (FAS; 50 µg/ml, 37 °C, 180 min, control 5.6)?
Answer: 1.8 nM NADPH oxidized/min

Question: And the “effect of incubation at 4°” value (FAS; incubation at 4°)?
Answer: abolishes the inhibitory effect

Question: What about the “day by which original body weight was achieved again after the increase” value [4] of the same compound?
Answer: ≤ 34 days

Question: And the “day by which original weight was regained” value [4]?
Answer: ≤ 15 days

Question: What about the “weight relative to original body weight” value ([4]; by day 24) of the same compound?
Answer: ~110%

Question: And the body weight loss ([4]; by day eight)?
Answer: 20%

Question: What about the “rescue from growth inhibition by exogenous fatty acid” value [5] of the same compound?
Answer: palmitate rescues HL60 cells from C-75

Question: With C/C=C/C/C=C/CCC(=O)[C@H]1O[C@H]1C(N)=O [cerulenin] as the compound, how does the “effect on mean hepatic fatty acid synthesis” value ([1]; mice with OVCAR-3 ascites tumor, intraperitoneal administration) read?
Answer: no effect

Question: And the “inhibition of fatty acid synthesis in liver” value ([1]; mice without tumor, parallel experiments)?
Answer: ~50%

Question: And the “time to regain inception body mass following treatment” value [6]?
Answer: ≤ 10 days

Question: And the “urinalysis, diabetogenic effect” value [6]?
Answer: failed to demonstrate any diabetogenic effect

Question: And the “mean weight loss of original body mass” value ([6]; during the treatment period)?
Answer: 25%

Question: What about the “inhibition with high dose over standard dose” value ([7]; high dose 6mg/mouse versus standard dose 2mg/mouse) of the same compound?
Answer: No augmentation of inhibition

Question: And the “reduction of OVCAR-3 ascites tumor fatty acid synthesis” value ([7]; intraperitoneal administration as in Example 3)?
Answer: 43%

Question: And the Water intake [8, 10]?
Answer: not appreciable altered

Question: And the “reduction of feces mass” value [8, 10]?
Answer: 28%

Question: What about the “weight relative to original weight” value ([8]; 60 mg/kg i.p. each day for 1 week, by day 14) of the same compound?
Answer: 96%

Question: What about the “average loss of weight” value ([8]; 60 mg/kg i.p. each day for 1 week, by day eight) of the same compound?
Answer: 28%

Question: And the “Observation of the mice (activity)” value ([8]; during the period of maximal weight loss)?
Answer: normal activity

Question: What about the “Liver, microscopically” value ([8]; necropsy, parallel experiment) of the same compound?
Answer: unremarkable without necrosis or inflammation

Question: What about the “muscle mass, histologically” value ([8]; necropsy, parallel experiment) of the same compound?
Answer: no decrease in muscle mass was detected histologically

Question: What about the “Necropsy: fat deposits” value ([8]; parallel experiment) of the same compound?
Answer: markedly decreased subcutaneous fat and abdominal fat deposits

Question: What about the half-life [9] of the same compound?
Answer: < 15 min
